Data from patent US4954491A, “Method of treatment using 18-cyanoprogesterone derivatives” (Merrell Dow Pharmaceuticals Inc., priority 1989, dated 1990).

Assays:
[1] = tested on: rabbits; settings: Auel et al.; cited from earlier work
[2] = tested on: enzymes in the synthesis of aldosterone; assay: inhibition of enzymes in the synthesis of aldosterone (rat adrenal capsule/glomerulosa homogenates, [3H]-DOC substrate); format: biochemical, Sprague-Dawley rats; settings: Conc 10 μM, 1 μM [3H]-DOC, 10-minute assay, 25° C., pH 7.4; for f moles/min/mg: buffer control 246
Method: Young male Sprague-Dawley rats were maintained on a sodium-deficient diet for about two weeks prior to use. From these animals, adrenal capsule/glomerulose homogenates were prepared (6 mg/ml) in pH 7.4 assay buffer [MgCl2 8.5 mM, CaCl2 2.7 mM, KCl 3.13 mM, NaCl 7.591 mM, TRIS 50 mM and 0.1% triethylamine]and centrifuged 500xg for 10 minutes.
Assays were conducted in 35 ml glass tubes maintained at 25° C. in a Dubnoff shaker with 95% O2 /5% CO2. The tubes contained the following material: 100 μl of an NADPH^+ generating system, 300 μl of adrenal capsular/glomerulosa cytosol, and 50 μl of test compound or buffer (control). After initial preincubation intervals of 20 minutes, the 10-minute assay was started by the addition of 50 μl of tritium-labelled substrate, i.e., 1 μM [^3 H]-DOC. Reactions were quenched by the addition of 5 ml of ethyl acetate and non-radiolabelled steroids were also added. The samples were extracted twice with 5 ml of ethyl acetate and the solvent evaporated under nitrogen at 30°-40° C.
Residues were redissolved in methanol:water (40:60) with 0.1% triethylamine and high performance liquid chromatography was used to separate products on a Cl8 reverse phase (5 μ ODS-Hypersil) column (4.6×250 mm, Shannon) with a 1 ml/min flow rate using an MeOH:H2 O gradient (solvent A 10/90:solvent B 90/10).
Unchanged substrate and products formed were monitored by UV absorbance at 246 nm and the amount of steroid compound present was quantified by [^3 H]radioactivity. Using this procedure, the following results were observed: […]

[3] = tested on: rabbits; settings: Auel et al.; cited from earlier work; remark: listed apart in the source

SMILES	pharmacological activity in the Clauberg test [1]	% Inhibition [2]	f moles/min/mg [2]	pharmacological activity in the anti-Clauberg test [3]
CC(=O)[C@H]1CC[C@H]2[C@@H]3CCC4=CC(=O)CC[C@]4(C)[C@H]3CC[C@]12CC#N [3,20-Dioxopregn-4-ene-18-carbonitrile]	inactive	52.5%	117 f moles/min/mg	inactive
CC(=O)[C@H]1CC[C@H]2[C@@H]3CCC4=CC(=O)CC[C@]4(C)[C@H]3[C@@H](O)C[C@]12CC#N [11β-Hydroxy-3,20-dioxopregn-4-ene-18-carbonitrile]		33.3%	164 f moles/min/mg	
